Experimental data published in patent US8906952B2, “Indole derivative or pharmaceutically acceptable salt thereof, preparation method thereof, and pharmaceutical composition for preventing or treating metabolic diseases containing same as active ingredient” (Korea Research Institute of Bioscience and Biotechnology, priority 2011, dated 2014).
Read-outs that look alike come from different tables or passages of the source.

How the values were obtained:
human DGAT2 = molecular target: T1, human DGAT2 (Homo sapiens, UniProt Q96PD7); test: DGAT enzyme inhibition test, hDGAT2 enzyme from sf9 insect cells (DGAT2 selectivity); assay type: biochemical
T1 construct: made in house; host or cells: sf9 insect cells
T1 sequence (Q96PD7 1-388): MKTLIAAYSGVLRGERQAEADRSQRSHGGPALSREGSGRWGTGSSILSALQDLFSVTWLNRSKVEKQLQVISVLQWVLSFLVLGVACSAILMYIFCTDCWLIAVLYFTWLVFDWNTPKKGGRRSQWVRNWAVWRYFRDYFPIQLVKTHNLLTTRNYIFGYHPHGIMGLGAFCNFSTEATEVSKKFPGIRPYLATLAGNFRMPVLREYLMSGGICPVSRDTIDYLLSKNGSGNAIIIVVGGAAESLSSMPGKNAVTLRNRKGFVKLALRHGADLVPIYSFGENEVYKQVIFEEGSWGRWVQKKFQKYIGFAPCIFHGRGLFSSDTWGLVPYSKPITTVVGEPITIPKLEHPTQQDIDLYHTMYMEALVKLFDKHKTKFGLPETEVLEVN
Excerpt: (§1) To investigate inhibitory effect of the compounds of Examples 1-33 against DGAT enzyme activity, DGAT enzyme inhibition and DGAT2 selectivity were investigated using zymogen including:
(§2) 1) hDGAT1 and hDGAT2 enzymes, derived from insect cell overexpressing human DGAT1 and DGAT2 (‘sf9’), respectively,
(§3) To be specific, for the purpose of measuring human-derived DGAT enzyme inhibitory activity, using the zymogen, including enzymes derived from insect cell overexpressing human DGAT1 and DGAT2 (‘sf9’), microsomal protein isolated from human duodenal adenocarcinoma (‘Hutu 80’), and microsomal protein isolated from rat, and according to Coleman et al., (Methods Enzymol., 98-103, 1992), and substrate including 1,2-diacylglycerol(Sigma, D0138) and [^14C]palmitoyl-CoA (Amersham, CFA583), the amount of radiation of [^14C]triacylglycerol produced after enzymatic reaction was measured.
(§4) To be more specific, to the reaction solution containing 175 mM Tris-HCl (pH 8.0), 20 μl bovine serum albumin (10 mg/ml), 100 mM magnesium chloride, 30 μM [^14C]palmitoyl CoA (0.02 μCi, Amersham) and 200 μM 1,2-dioleoylglycerol, reagent dissolved in dimethylsulfoxide (10.0 μl) was added. After introducing 100 to 200 μg isolated microsomal protein and allowing the same to react at 25° C. for 10 min, the reaction was stopped by adding 1.5 ml stop solution (2-propanol:heptane:water=80:20:2, v:v:v). To isolate the product of the reaction (i.e., [^14C]triacylglycerol), 1 ml heptane and 0.5 ml distilled water were added and then decocted. After taking 1 ml supernatant, 2 ml alkaline ethanol solution (ethanol:0.5 N sodium hydroxide:water=50:10:40, v:v:v) were added and then decocted. After taking 0.65 ml supernatant from the decoction, the amount of radiation was measured with liquid scintillation counter (LSC). The DGAT inhibitory activity was calculated with Mathematical Expression 1 below:
(§5) T denotes cpm of experimental group in which the enzymatic reaction solution was treated with the sample,
(§6) C denotes cpm of control group in which the enzymatic reaction solution was not treated with the sample, and
(§7) B denotes cpm of control group treated with the sample without zymogen.

human DGAT1 = molecular target: T2, human DGAT1 (Homo sapiens, UniProt O75907); test: DGAT enzyme inhibition test, hDGAT1 enzyme from sf9 insect cells; assay type: biochemical; conditions: enzyme from sf9 cells overexpressing hDGAT1; read-out: hDGAT-1 (sf9) IC50
T2 construct: made in house; host or cells: sf9 insect cells
T2 sequence (O75907 1-488): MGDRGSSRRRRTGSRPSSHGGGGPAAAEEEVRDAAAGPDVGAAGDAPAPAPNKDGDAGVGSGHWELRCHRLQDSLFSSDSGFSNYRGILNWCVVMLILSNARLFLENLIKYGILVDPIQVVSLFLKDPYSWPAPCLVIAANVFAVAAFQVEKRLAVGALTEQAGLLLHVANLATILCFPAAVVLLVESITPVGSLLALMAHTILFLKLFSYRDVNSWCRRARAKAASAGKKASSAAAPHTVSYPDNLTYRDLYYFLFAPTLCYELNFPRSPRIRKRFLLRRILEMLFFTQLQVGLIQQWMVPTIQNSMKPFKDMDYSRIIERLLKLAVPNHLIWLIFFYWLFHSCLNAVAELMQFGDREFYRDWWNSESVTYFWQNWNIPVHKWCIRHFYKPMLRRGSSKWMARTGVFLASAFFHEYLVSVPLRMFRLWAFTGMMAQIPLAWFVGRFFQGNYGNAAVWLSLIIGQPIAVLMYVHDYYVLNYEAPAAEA
Excerpt: as §1, §2, §3, §4, §5, §6, §7

HepG2 cells = test: DGAT inhibitory effect in HepG2 cells (triglyceride production from [14C]glycerol); assay type: cell-based; conditions: Homo sapiens; for activity at 10 µM: HepG2, 6 h, DMSO control = 100, read-out: Triglyceride production rate (%)/HepG2 cells at 10 μM; for inhibition at 10 µM: HepG2, 10 μM, read-out: biosynthesis inhibition rate of triglyceride
Description: To investigate inhibition effect on intracellular DGAT enzyme activity of the compounds obtained in Examples 1-51, intracellular DGAT enzyme activity was measured using human-derived liver HepG2 cells.
HepG2 cells were purchased from ATCC, and cultured in 37° C., 5% CO2 incubator including minimum essential medium (2 mM L-glutamine, earle's BSS adjusted to contain 1.5 g/L sodium bicarbonate, 0.1 mM nonessential amino acids, and 1 mM sodium pyruvate) added with 10% fetal bovine serum (FBS) and 1% antibiotic (100 U/ml penicillin and 100 µg/ml streptomycin).
The intracellular DGAT enzyme activity was measured based on an amount of triglycerides produced in the cultured HepG2 cells, by adding 10 μM enzyme inhibitor compounds obtained in Examples 1-51, respectively, and then determining the effect of the enzyme inhibitors according to reduction rate of the triglyceride production.
Specifically, cells were seeded 1×10^6 cell/ml per well of the 24 well culture plate, and 24 hours after incubation, medium was exchanged with FBS-free DMEM medium, and sample of 0.2 mCi [^14C]glycerol (Amersham) was added as substrate, and the reaction was allowed to occur for 6 hr. The induced production of triglyceride was catalyzed by the DGAT enzyme, and DGAT enzyme activity was determined based on the amount of production of triglyceride which was measured based on the amount of radiation. The sample was dissolved in dimethylsulfoxide (DMSO) to be used, and the control group in the triglyceride production reaction was reacted with dimethylsulfoxide only (i.e., without sample), and the amount of the triglyceride production rate was set to 100.
After the reaction completed, the substrate [^14C]glycerol which was either not absorbed into cells or not used for the reaction, were removed with phosphate-buffer-saline (PBS), and 0.5 ml extraction solvent (hexane:isopropanol=3:2, v:v) was added to extract full fat containing triglycerides. With 0.5 ml extraction solvent, extract was obtained two times for 30 min each, and 1 ml of the extract was concentrated with nitrogen gas. After removing the extraction solvent, the total fat was dissolved in organic solvent (chloroform:methanol=2:1) and spotted with thin-layer chromatography (TLC:silica gel 60F254, thickness: 0.5 mm, Merck) on the developing solvent (hexane:diethyl ether:acetic acid=80:20:1, v: v: v). Triglycerides (Rf value: 0.4) were isolated on TLC, and after exposing the TLC plate to the film with photosensitivity to radiation energy (imaging plate' Fujifilm, BMS-MS 2040) for 3 hr, the amount of [^14C] radiation of triglyceride was measured by imaging analysis (FLA 7000). The remaining cells after the extraction were dissolved in 0.3 ml 0.1 N sodium hydroxide for use in the measurement of protein concentration of the cells used for the reaction.
The experimental errors among the respective experimental groups were compensated with the experimental value which was obtained by dividing the measured radiation of triglyceride by protein concentration, and the production rate of triglyceride according to the respective compounds of Examples 1-51 are tabulated below.

[1] = 10 μM, enzyme from sf9 cells overexpressing hDGAT2, read-out: hDGAT-2 (sf9) inhibition rate(%)at 10 μM
[2] = concentration of 10 μM, read-out: hDGAT2 inhibition

Structure (SMILES)	inhibition at 10 µM (human DGAT2; [1])	inhibition at 10 µM (human DGAT2; [2])	IC50 (human DGAT1)	activity at 10 µM (HepG2 cells)	inhibition at 10 µM (HepG2 cells)
Cc1ccc2c(c1)c(/C=C/C(=O)N(NC(=O)c1cccc(F)c1)C(C)C)cn2C(=O)OC(C)(C)C [Example 35, (E)-tert-butyl 3-(3-(2-(3-fluorobenzoyl)-1-isopropylhydrazinyl)-3-oxoprop-1-enyl)-5-methyl-1H-indole-1-carboxylate]	2%	< 11%	3.2 µM	57.6%	–
CC(C)CCn1cc(/C=C/C(=O)N(NC(=O)c2cccc(F)c2)C(C)C)c2ccccc21 [Example 39, (E)-3-fluoro-N′-(3-(1-isopentyl-1H-indol-3-yl)acryloyl)-N′-isopropylbenzohydrazide]	42.3%	–	1.8 µM	50.8%	–
Cc1ccc2c(/C=C/C(=O)N(NC(=O)c3cccc(F)c3)C(C)C)cn(C(=O)OC(C)(C)C)c2c1 [Example 37, (E)-tert-butyl 3-(3-(2-(3-fluorobenzoyl)-1-isopropylhydrazinyl)-3-oxoprop-1-enyl)-6-methyl-1H-indole-1-carboxylate]	2.9%	–	> 100 µM	79.2%	20 to 30%
CC(C)c1ccc2c(/C=C/C(=O)N(NC(=O)c3cccc(F)c3)C(C)C)cn(C(=O)OC(C)(C)C)c2c1 [Example 36, (E)-tert-butyl 3-(3-(2-(3-fluorobenzoyl)-1-isopropylhydrazinyl)-3-oxoprop-1-enyl)-6-isopropyl-1H-indole-1-carboxylate]	3.6%	–	> 100 µM	75%	20 to 30%
CC(C)N(NC(=O)c1cccc(F)c1)C(=O)/C=C/c1cn(C(=O)OC(C)(C)C)c2cc(F)ccc12 [Example 38, (E)-tert-butyl 6-fluoro-3-(3-(2-(3-fluorobenzoyl)-1-isopropylhydrazinyl)-3-oxoprop-1-enyl)-1H-indole-1-carboxylate]	< 0%	–	> 100 µM	85.7%	–
CC(C)=CCn1cc(/C=C/C(=O)N(NC(=O)c2cccc(F)c2)C(C)C)c2ccccc21 [Example 34]	18.5%	–	7.2 µM	58%	–

Further lines, with some results ahead:

inhibition at 10 µM (human DGAT2; [1])	inhibition at 10 µM (human DGAT2; [2])	IC50 (human DGAT1)	Structure (SMILES)	activity at 10 µM (HepG2 cells)	inhibition at 10 µM (HepG2 cells)
28.7%	–	2.2 µM	CC(C)N(NC(=O)c1cccc(Cl)c1)C(=O)/C=C/c1cn(C(=O)OC(C)(C)C)c2ccccc12 [Example 45, (E)-tert-butyl 3-(3-(2-(3-chlorobenzoyl)-1-isopropylhydrazinyl)-3-oxoprop-1-enyl)-1H-indole-1-carboxylate]	97.9%	–
2.2%	–	> 100 µM	CC(C)N(NC(=O)c1cccc(F)c1)C(=O)/C=C/c1cn(C)c2ccccc12 [Example 40, (E)-3-fluoro-N′-isopropyl-N′-(3-(1-methyl-1H-indol-3-yl)acryloyl)benzohydrazide]	90%	–
39%	–	4.6 µM	CC(C)=CCn1cc(/C=C/C(=O)N(NC(=O)c2cccc(C)c2)C(C)C)c2ccccc21 [Example 50, (E)-N′-isopropyl-3-methyl-N′-(3-(1-(3-methylbut-2-enyl)-1H-indol-3-yl)acryloyl)benzohydrazide]	–	–
32.4%	–	3.6 µM	CCCn1cc(/C=C/C(=O)N(NC(=O)c2cccc(F)c2)C(C)C)c2ccccc21 [Example 42, (E)-3-fluoro-N′-isopropyl-N′-(3-(1-propyl-1H-indol-3-yl)acryloyl)benzohydrazide]	79.9%	20 to 30%
20.3%	–	8.1 µM	CCn1cc(/C=C/C(=O)N(NC(=O)c2cccc(F)c2)C(C)C)c2ccccc21 [Example 41, (E)-N′-(3-(1-ethyl-1H-indol-3-yl)acryloyl)-3-fluoro-N′-isopropylbenzohydrazide]	79.4%	20 to 30%
0.6%	< 11%	4 µM	CC(C)N(NC(=O)c1ccncc1)C(=O)/C=C/c1cn(C(=O)OC(C)(C)C)c2ccccc12 [Example 43, (E)-tert-butyl 3-(3-(2-isonicotinoyl-1-isopropylhydrazinyl)-3-oxoprop-1-enyl)-1H-indole-1-carboxylate]	81.3%	–
37.1%	–	9.9 µM	CC(C)=CCn1cc(/C=C/C(=O)N(NC(=O)c2ccc(C)cc2)C(C)C)c2ccccc21 [Example 51, (E)-N′-isopropyl-4-methyl-N′-(3-(1-(3-methylbut-2-enyl)-1H-indol-3-yl)acryloyl)benzohydrazide]	–	–
